In the supplement of paper PMC10307832:

What was measured:
Test in all cases: relative viability (nuclei count vs DMSO), 5 days (fraction); higher = more cells survive
Entinostat + Linsitinib = compound: Nc1ccccc1NC(=O)c1ccc(CNC(=O)OCc2cccnc2)cc1 [Entinostat] + C[C@]1(O)C[C@@H](c2nc(-c3ccc4ccc(-c5ccccc5)nc4c3)c3c(N)nccn32)C1 [Linsitinib] (partner 1 µM)
Outline: (§1)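 After 5 days of treatment, lung cancer cells in 1536-well plates were fixed and stained in a single step (final 0.05% Triton X-100, 1% formaldehyde, 1 ug/ml Hoechst) and their nuclei counted on 4× images. Treatment had been applied by pin tool the day after seeding as one drug alone or as a fixed anchor-drug dose with five library-drug doses (not always all listed) in √10 steps. Relative viability is the nuclei count of treated wells divided by that of vehicle wells, and values are medians of duplicate plates.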

SGI-1776 + Linsitinib = compound: CN1CCC(CNc2ccc3ncc(-c4cccc(OC(F)(F)F)c4)n3n2)CC1 [SGI-1776] + C[C@]1(O)C[C@@H](c2nc(-c3ccc4ccc(-c5ccccc5)nc4c3)c3c(N)nccn32)C1 [Linsitinib] (partner 1 µM)
Outline: as §1

SGI-1776 + Palbociclib = compound: CN1CCC(CNc2ccc3ncc(-c4cccc(OC(F)(F)F)c4)n3n2)CC1 [SGI-1776] + CC(=O)c1c(C)c2cnc(Nc3ccc(N4CCNCC4)cn3)nc2n(C2CCCC2)c1=O [Palbociclib] (partner 0.5 µM)
Outline: as §1

SGI-1776 + Vorinostat = compound: CN1CCC(CNc2ccc3ncc(-c4cccc(OC(F)(F)F)c4)n3n2)CC1 [SGI-1776] + O=C(CCCCCCC(=O)Nc1ccccc1)NO [Vorinostat] (partner 1 µM)
Outline: as §1

| Cell Line | relative viability (Entinostat + Linsitinib; first compound 0.02 µM) | relative viability (Entinostat + Linsitinib; first compound 0.06325 µM) | relative viability (Entinostat + Linsitinib; first compound 0.2 µM) | relative viability (Entinostat + Linsitinib; first compound 0.6325 µM) | relative viability (Entinostat + Linsitinib; first compound 2 µM) | relative viability (SGI-1776 + Linsitinib; first compound 0.08 µM) | relative viability (SGI-1776 + Linsitinib; first compound 0.8 µM) | relative viability (SGI-1776 + Linsitinib; first compound 2.53 µM) | relative viability (SGI-1776 + Linsitinib; first compound 8 µM) | relative viability (SGI-1776 + Palbociclib; first compound 0.08 µM) | relative viability (SGI-1776 + Palbociclib; first compound 0.8 µM) | relative viability (SGI-1776 + Palbociclib; first compound 2.53 µM) | relative viability (SGI-1776 + Palbociclib; first compound 8 µM) | relative viability (SGI-1776 + Vorinostat; first compound 0.08 µM) | relative viability (SGI-1776 + Vorinostat; first compound 0.8 µM) | relative viability (SGI-1776 + Vorinostat; first compound 2.53 µM) | relative viability (SGI-1776 + Vorinostat; first compound 8 µM) |
| --- | --- | --- | --- | --- | --- | --- | --- | --- | --- | --- | --- | --- | --- | --- | --- | --- | --- |
| NCI-H1792 | 0.476 | 0.502 | 0.392 | 0.276 | 0.153 | 0.479 | 0.543 | 0.503 | 0.647 | 0.659 | 0.626 | 0.59 | 0.615 |  |  |  |  |
| NCI-H2009 | 1.28 | 1.18 | 1.06 | 0.8 | 0.651 | 1.22 | 1.16 | 1.3 | 1.09 | 0.251 | 0.151 | 0.166 | 0.174 | 0.756 | 0.761 | 0.671 | 0.588 |
| SW 900 |  |  |  |  |  |  |  |  |  | 0.599 | 0.633 | 0.571 | 0.395 | 0.506 | 0.752 | 0.651 | 0.361 |
| NCI-H1563 | 1.14 | 1.2 | 1.09 | 0.897 | 0.769 | 1.14 | 1.19 | 1.16 | 1.08 |  |  |  |  |  |  |  |  |
| NCI-H1650 |  |  |  |  |  |  |  |  |  | 0.373 | 0.354 | 0.344 | 0.228 | 0.848 | 0.621 | 0.521 | 0.423 |
| Calu-6 | 0.859 | 0.961 | 0.852 | 0.739 | 0.502 | 1.07 | 0.986 | 0.997 | 0.818 |  |  |  |  |  |  |  |  |
| EBC-1 | 0.934 | 0.94 | 0.811 | 0.22 | 0.122 | 0.969 | 0.85 | 1.02 | 0.675 |  |  |  |  |  |  |  |  |
| NCI-H2342 |  |  |  |  |  |  |  |  |  | 0.609 | 0.539 | 0.55 | 0.535 | 0.78 | 0.723 | 0.707 | 0.799 |
| NCI-H1703 | 0.883 | 0.805 | 0.857 | 0.919 | 0.582 | 0.662 | 0.979 | 0.433 | 0.13 |  |  |  |  |  |  |  |  |
| ChaGo-K-1 |  |  |  |  |  |  |  |  |  | 0.911 | 0.974 | 0.967 | 0.911 | 0.788 | 0.825 | 0.797 | 0.73 |
| IA-LM | 0.645 | 0.774 | 0.785 | 0.628 | 0.543 | 0.732 | 0.603 | 0.593 | 0.692 |  |  |  |  | 0.956 | 0.914 | 0.922 | 0.926 |
| NCI-H1648 |  |  |  |  |  |  |  |  |  | 0.286 | 0.327 | 0.226 | 0.319 | 0.476 | 0.555 | 0.294 | 0.39 |
| NCI-H522 |  |  |  |  |  |  |  |  |  | 1.22 | 1.25 | 0.953 | 0.731 | 0.92 | 0.896 | 0.903 | 0.858 |
| A549 | 0.595 | 0.646 | 0.627 | 0.648 | 0.602 | 0.672 | 0.574 | 0.518 | 0.48 |  |  |  |  |  |  |  |  |
